Assay: recombinant barcode read abundance after kanamycin selection (control-corrected) (log10(CPM+1)); higher = more efficient recombination; sequences stand for … in AGTGCAGAGAAAATCGGCCAGTTTTCTCTGCCTGCAGTCCGCATGCCGT…AGATTTATGCAGCGGACTGCCTTTCTCCCAAAGTGATAAACCGGACAGTATCATGGACCGGTTTTCCCGGTAATCCGTATTTGCAAGGTTGGTTTCACT; site = the 11-nt target
Experimental: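 Pooled E. coli target-specificity screen for the IS621 bridge recombinase. Each library plasmid pairs an 11-nt target (CT core) with a bridge RNA whose target-binding loop (9-nt LTG + 4-nt RTG) is reprogrammed; the rest of the 177-nt WT IS621 bridge RNA scaffold is fixed. The plasmid is co-electroporated with a WT donor plasmid; recombinase is induced with 0.1 mM IPTG and recombinants are selected on kanamycin. Recombinant barcodes are sequenced, converted to CPM, averaged over two biological replicates and corrected by the unselected control CPM. Molecule = full bridge RNA written as DNA: LTG = specificity nt 1-9, RTG = reverse complement of specificity nt 8-11, in the WT scaffold.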
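Further: IS621 recombinase and bridge RNA in Escherichia coli cells.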

Row | Sequence | recombinant barcode read abundance (log10)
1 | GAGGGTCCTTGGGTTCTAACCTGTTGCCT (site GAGGGTCCTAA) | 0.451
2 | CTCTAGTCTTGGGTTCTAACCTGTTGCGT (site CTCTAGTCTAT) | 1.79
3 | GGGTCTTCTTGGGTTCTAACCTGTTGCAT (site GGGCCTTCTAT) | 0.152
4 | GAGTCGCCTTGGGTTCTAACCTGTTGCGG (site GAGTAGCCTCC) | 0.0862
5 | GTGAGGTCTTGGGTTCTAACCTGTTGCGT (site GTGAGGTCTAG) | 0.586
6 | AACTTATCTTGGGTTCTAACCTGTTGCCT (site AACTGATCTAG) | 0.0896
7 | CATCTATCTTGGGTTCTAACCTGTTGCCT (site CATCTATCTAG) | 0.624
8 | CATGCTACTTGGGTTCTAACCTGTTGCGT (site GATTCTACTAC) | 0.0988
9 | ACATAAGCTTGGGTTCTAACCTGTTGCTA (site GGCGGCTCTAG) | 0.18
10 | AAGTTTACTTGGGTTCTAACCTGTTGCCT (site AAGTTTACTAA) | 0.0435
11 | CCTATCCCTTGGGTTCTAACCTGTTGCCT (site CCTTTCACTAG) | 0.311
12 | AGTACGTCTTGGGTTCTAACCTGTTGCTT (site GTTACGTCTAA) | 0.0179
13 | TAGAACTCTTGGGTTCTAACCTGTTGCCC (site TAGAACTCTTG) | 0.0327
14 | GTCAACCCTTGGGTTCTAACCTGTTGCTG (site GTCAAACCTCA) | 0.045
15 | TATGTAGCTTGGGTTCTAACCTGTTGCCA (site TATGTAGCTCG) | 0.0344
16 | CTAGACACTTGGGTTCTAACCTGTTGCCT (site CTAGACACTAG) | 0.612
17 | TCGGACCCTTGGGTTCTAACCTGTTGCGA (site TCGAACCCTTC) | 1
18 | GCAGGGACTTGGGTTCTAACCTGTTGCAG (site GCATGGACTCT) | 0.224
19 | CCGTCTACTTGGGTTCTAACCTGTTGCCT (site CAGTCTACTAG) | 0.0408
20 | ATACCATCTTGGGTTCTAACCTGTTGCCT (site ATCCCATCTAG) | 0.173
21 | GTAGCCACTTGGGTTCTAACCTGTTGCCT (site GTGGCCACTAG) | 0.791

Row | Sequence | recombinant barcode read abundance (log10)
22 | GATGGAGCTTGGGTTCTAACCTGTTGCGG (site GATCGAGCTTC) | 0.198
23 | ACATAAGCTTGGGTTCTAACCTGTTGCTA (site ACATAAGCTTA) | 1.11
24 | CTATGGACTTGGGTTCTAACCTGTTGCAG (site CTATGGACTAT) | 0.391
25 | CTACGCACTTGGGTTCTAACCTGTTGCTG (site CTACGTACTCA) | 0.156
26 | AATAAGTCTTGGGTTCTAACCTGTTGCAT (site CTCGCTCCTCA) | 0.0524
27 | GGTTATCCTTGGGTTCTAACCTGTTGCGG (site GGTTATCCTCC) | 1.17
28 | CTACTAACTTGGGTTCTAACCTGTTGCGT (site CTACTAACTAA) | 0.13
29 | GTAGAGTCTTGGGTTCTAACCTGTTGCTT (site GTAGAGTCTAA) | 2.41
30 | GAAACAGCTTGGGTTCTAACCTGTTGCCT (site GAGACAGCTAG) | 0.281
31 | TAGAACCCTTGGGTTCTAACCTGTTGCTT (site TAGATCCCTAA) | 0.0967
32 | TCGAGTTCTTGGGTTCTAACCTGTTGCCT (site TCGAGTTCTAG) | 0.174
33 | GAGGGTCCTTGGGTTCTAACCTGTTGCTT (site GAGGGTCCTAG) | 1.72
34 | CCGTCTACTTGGGTTCTAACCTGTTGCTA (site CCGTCTACTCA) | 0.161
35 | GGGGCGCCTTGGGTTCTAACCTGTTGCCT (site GGGGCGACTAG) | 0.44
36 | GAAGTACCTTGGGTTCTAACCTGTTGCCT (site GAAGTACCTAG) | 1.92
37 | GCCGACACTTGGGTTCTAACCTGTTGCCT (site GCCGAAACTAG) | 0.0569
38 | GCCCGGGCTTGGGTTCTAACCTGTTGCCG (site GCCGGGGCTCG) | 0.0496
39 | ATACAATCTTGGGTTCTAACCTGTTGCCT (site CTACAATCTAG) | 0.127
40 | ACCTGACCTTGGGTTCTAACCTGTTGCCT (site ACCTGACCTAG) | 1.31
41 | TAACCTCCTTGGGTTCTAACCTGTTGCCT (site TAACCTTCTAG) | 0.127
42 | GGATAGCCTTGGGTTCTAACCTGTTGCCT (site GGATAGCCTAG) | 1.71

Row | Sequence | recombinant barcode read abundance (log10)
43 | GCGACTCCTTGGGTTCTAACCTGTTGCCT (site GCGACTCCTAG) | 0.699
44 | GATCGATCTTGGGTTCTAACCTGTTGCTT (site GATCGATCTAC) | 0
45 | TAGTGCTCTTGGGTTCTAACCTGTTGCCT (site TAGTGCTCTGG) | 0.157
46 | CTAGACACTTGGGTTCTAACCTGTTGCCT (site CTCGACACTAG) | 0.0911
47 | CATCTACCTTGGGTTCTAACCTGTTGCGG (site CATCTACCTCC) | 1.39
48 | TTCTACCCTTGGGTTCTAACCTGTTGCCT (site TACTACCCTAG) | 0.0731
49 | GTAAACTCTTGGGTTCTAACCTGTTGCCT (site GTAAACTCTAG) | 1.98
50 | AGACTAACTTGGGTTCTAACCTGTTGCTT (site GGACTAACTAG) | 0.0387
51 | AAGGGCCCTTGGGTTCTAACCTGTTGCCT (site GAGGGCCCTAG) | 0.122
52 | TATGTGGCTTGGGTTCTAACCTGTTGCCT (site TATGCGGCTAG) | 0.296
53 | TACGATACTTGGGTTCTAACCTGTTGCGT (site TACGATACTAC) | 1.19
54 | AAGCCCTCTTGGGTTCTAACCTGTTGCTT (site AAGGCCTCTAA) | 0
55 | TAAAAGACTTGGGTTCTAACCTGTTGCCT (site TAAAAGTCTAG) | 0.178
56 | GCGTCTCCTTGGGTTCTAACCTGTTGCAT (site GCGGCTCCTAT) | 0.0731
57 | CTGCAGACTTGGGTTCTAACCTGTTGCCG (site CTCCAGACTCT) | 0.37
58 | AGTATAACTTGGGTTCTAACCTGTTGCTG (site GTGTACCCTGT) | 0.178
59 | TACCTGCCTTGGGTTCTAACCTGTTGCGT (site TACCTGCCTAC) | 1.27
60 | TCTAGAACTTGGGTTCTAACCTGTTGCCT (site TCTAGAGCTAG) | 0.0689
61 | ACAGTGTCTTGGGTTCTAACCTGTTGCGG (site ACAATGTCTCC) | 1.37
62 | GCCGATCCTTGGGTTCTAACCTGTTGCCT (site GTCGATCCTAG) | 0.0291
63 | GCGACGCCTTGGGTTCTAACCTGTTGCCT (site GCGACGCCTAG) | 1.26

Row | Sequence | recombinant barcode read abundance (log10)
64 | AATGCTCCTTGGGTTCTAACCTGTTGCAT (site AATGCTCCTAA) | 0.0259
65 | ACGACTACTTGGGTTCTAACCTGTTGCCT (site ACGACTGCTAG) | 0.113
66 | TAGGTTCCTTGGGTTCTAACCTGTTGCAT (site TAGGTGCCTAT) | 0.6
67 | TGTGGGTCTTGGGTTCTAACCTGTTGCCT (site TATGGGTCTAG) | 0.0229
68 | CGGCCTACTTGGGTTCTAACCTGTTGCTT (site CGGCCTACTAA) | 0.659
69 | GACCCACCTTGGGTTCTAACCTGTTGCCT (site AACCCACCTAG) | 1.64
70 | ACCCATTCTTGGGTTCTAACCTGTTGCGT (site ACCCATTCTAC) | 2.29
71 | GTGTACCCTTGGGTTCTAACCTGTTGCGG (site GTGTACCCTGC) | 0.161
72 | TAGCCATCTTGGGTTCTAACCTGTTGCTC (site TAGTCATCTGA) | 0
73 | ATATGGACTTGGGTTCTAACCTGTTGCTA (site ATAGGGACTTA) | 0.159
74 | TCACAGTCTTGGGTTCTAACCTGTTGCCT (site TAACACTCTAG) | 0.0324
75 | GAGCCTTCTTGGGTTCTAACCTGTTGCAG (site AAGCCTTCTCA) | 0.0383
76 | CCGCGCTCTTGGGTTCTAACCTGTTGCCT (site CCGCGCACTAG) | 0.106
77 | ACCTGGCCTTGGGTTCTAACCTGTTGCCT (site ACCTGGCCTAG) | 0.412
78 | GGTTATCCTTGGGTTCTAACCTGTTGCGG (site TTACGCTCTTA) | 0.0896
79 | TGAATTACTTGGGTTCTAACCTGTTGCCT (site TGAAATACTAG) | 0.116
80 | GTCGTCTCTTGGGTTCTAACCTGTTGCCT (site GTCGTCACTAG) | 0.0143
81 | GGAACGACTTGGGTTCTAACCTGTTGCGT (site CTCCGAGCTGT) | 0.0623
82 | ACCCAAGCTTGGGTTCTAACCTGTTGCCT (site ACCCAAACTAG) | 1.14

From the supplement of paper PMC11208160
